Source: patent US20160129122A1, “FATTY ACID ANTIVIRAL CONJUGATES AND THEIR USES” (Catabasis Pharmaceuticals, Inc., priority 2011, published 2016)
pIC50: −log10 of the molar value. Read-outs that look alike come from different tables or passages of the source.

What was measured:
[1] = system: NF-κB; assay: NF-κB luciferase reporter assay in LPS-stimulated RAW 264.7 macrophages; assay type: cell-based; settings: Mus musculus; for pIC50: RAW264.7, RAW 264.7 cells with 3×NFkB response element luciferase reporter, 2 h pretreatment, 200 ng/ml LPS for 3 h, read-out: NF-kB inhibitory activity IC50; for IC50: RAW264.7, read-out: NF-kB inhibitory activity IC50 μM
Protocol: RAW 264.7 cells stably expressing a 3×NFkB response element-drive luciferase reporter were seeded into 96 well plates in sera-free medium (Optimem) 18 hours prior to compound application. Compounds of the invention were prepared by first making 100 mM stock solutions in EtOH. […] Cells were then stimulated with 200 ng/ml LPS or vehicle control for 3 hours in the presence of the compounds of the invention. A set of six vehicles was left unstimulated with LPS in order to measure the assay floor. AlamarBlue viability dye (Invitrogen) was added to cells simultaneously with the delivery of LPS (final AlamarBlue concentration of 10%). After the 3 h incubation period with LPS, cell viability was measured by reading fluorescence (excitation 550 nm, emission 595 nm) with a Perkin Elmer Victor V plate reader. Then cell media was aspirated from each well. Luciferase signal was then developed by addition of the Britelite Plus reagent (Perkin Elmer). Luciferase activity was measured with the Perkin Elmer Victor V plate reader. NF-κB activity was expressed as a percent of the vehicle control wells (stimulated with LPS). Compounds were tested at 6 dose point titrations in triplicate to determine IC50 values.

[2] = system: HIV-1IIIB strain; assay: HIV-1 cytoprotection assay (CEM-SS cells, MTS dye reduction); assay type: cell-based; settings: for IC50: Human immunodeficiency virus 1, IIIB, CEM-SS, 144 h, read-out: IC50 HIV-1IIIB strain (nM); for pIC50: Human immunodeficiency virus 1, 144 h, CEM-SS cells, HIV-1 IIIB strain, 6 days incubation, cytoprotection by MTS, read-out: IC50 HIV-1IIIB strain

| pIC50 [1] | pIC50 [2] | Structure (SMILES) | IC50 [2] [nM] | IC50 [1] [µM] |
| --- | --- | --- | --- | --- |
| 3.70 to 4.30 | – | CC/C=C\C/C=C\C/C=C\C/C=C\C/C=C\C/C=C\CCC(=O)NCCOCCNC(=O)OC[C@H]1OC(n2cc(C)c(=O)[nH]c2=O)C[C@@H]1N=[N+]=[N-] (stereo partly shown) [Compound V-8] | – | – |
| – | – | CC/C=C\C/C=C\C/C=C\C/C=C\C/C=C\C/C=C\CCC(=O)Nc1ccc(S(=O)(=O)N(CC(C)C)C[C@@H](O)[C@H](Cc2ccccc2)NC(=O)O[C@H]2CO[C@H]3OCC[C@H]32)cc1 [VII-1, (3R,3aS,6aR)-hexahydrofuro[2,3-b]furan-3-yl((2S,3R)-4-(4-((4Z,7Z,10Z,13Z,16Z,19Z)-docosa-4,7,10,13,16,19-hexaenamido)-N-isobutylphenylsulfonamido)-3-hydroxy-1-phenylbutan-2-yl)carbamate] | < 100 | 50 to 200 |
| – | – | CC/C=C\C/C=C\C/C=C\C/C=C\C/C=C\CCCC(=O)NCCNP(=O)(OC)OC[C@@H]1O[C@H](n2ccc(N)nc2=O)CS1 (stereo partly drawn) [II-70, ((2R,5S)-5-(4-amino-2-oxopyrimidin-1(2H)-yl)-1,3-oxathiolan-2-yl)methyl methyl (2-((5Z,8Z,11Z,14Z,17Z)-icosa-5,8,11,14,17-pentaenamido)ethyl)phosphoramidate] | – | 50 to 200 |
| – | > 7.00 | CC/C=C\C/C=C\C/C=C\C/C=C\C/C=C\CCCC(=O)Nc1ccc(S(=O)(=O)N(CC(C)C)C[C@@H](O)[C@H](Cc2ccccc2)NC(=O)O[C@H]2CO[C@H]3OCC[C@H]32)cc1 [VII-2, (3R,3aS,6aR)-hexahydrofuro[2,3-b]furan-3-yl((2S,3R)-3-hydroxy-4-(4-((5Z,8Z,11Z,14Z,17Z)-icosa-5,8,11,14,17-pentaenamido)-N-isobutylphenylsulfonamido)-1-phenylbutan-2-yl)carbamate] | – | – |
| – | – | CC/C=C\C/C=C\C/C=C\C/C=C\C/C=C\C/C=C\CCC(=O)NCCNP(=O)(OC[C@H]1OC(n2cc(C)c(=O)[nH]c2=O)C[C@@H]1N=[N+]=[N-])Oc1ccccc1 (stereo partly shown) [II-25] | < 100 | < 50 |
| – | – | CC/C=C\C/C=C\C/C=C\C/C=C\C/C=C\C/C=C\CCC(=O)NCCNC(=O)OC[C@@H]1OC(n2ccc(N)nc2=O)CS1 (stereo partly drawn) [Compound V-21, ((2R,5S)-5-(4-amino-2-oxopyrimidin-1(2H)-yl)-1,3-oxathiolan-2-yl)methyl(2-((4Z,7Z,10Z,13Z,16Z,19Z)-docosa-4,7,10,13,16,19-hexaenamido)ethyl)carbamate] | < 100 | 50 to 200 |
| – | – | CC(C)CN(C[C@@H](O)[C@H](Cc1ccccc1)NC(=O)O[C@H]1CO[C@H]2OCC[C@H]21)S(=O)(=O)c1ccc(N)cc1 [Darunavir, darunavir, reference compound] | – | > 200 |
| > 4.30 | < 7.00 | CC/C=C\C/C=C\C/C=C\C/C=C\C/C=C\C/C=C\CCC(=O)NCCNC(=O)OC[C@H]1OC(n2cc(C)c(=O)[nH]c2=O)C[C@@H]1N=[N+]=[N-] (stereo partly shown) [Compound V-5] | – | – |
| – | – | C=C1[C@H](COP(=O)(NCCNC(=O)CCC/C=C\C/C=C\C/C=C\C/C=C\C/C=C\CC)OC)[C@@H](O)C[C@@H]1n1cnc2c(=O)nc(N)[nH]c21 (stereo partly drawn) [II-48, ((1R,3S,5S)-3-(2-amino-6-oxo-3H-purin-9(6H)-yl)-5-hydroxy-2-methylenecyclopentyl)methyl methyl (2-((5Z,8Z,11Z,14Z,17Z)-icosa-5,8,11,14,17-pentaenamido)ethyl)phosphoramidate] | – | 50 to 200 |
| – | – | CC/C=C\C/C=C\C/C=C\C/C=C\C/C=C\CCCC(=O)NCCNP(=O)(OC)OC[C@H]1OC(n2cc(C)c(=O)[nH]c2=O)C[C@@H]1N=[N+]=[N-] (stereo partly shown) [II-30] | > 100 | < 50 |
| – | – | CC/C=C\C/C=C\C/C=C\C/C=C\C/C=C\C/C=C\CCC(=O)NCCNP(=O)(OC[C@@H]1O[C@H](n2ccc(N)nc2=O)CS1)Oc1ccccc1 (stereo partly drawn) [II-67, ((2R,5S)-5-(4-amino-2-oxopyrimidin-1(2H)-yl)-1,3-oxathiolan-2-yl)methyl phenyl (2-((4Z,7Z,10Z,13Z,16Z,19Z)-docosa-4,7,10,13,16,19-hexaenamido)ethyl)phosphoramidate] | < 100 | < 50 |
| < 3.70 | > 7.00 | CC/C=C\C/C=C\C/C=C\C/C=C\C/C=C\C/C=C\CCC(=O)Nc1ccn(C2CS[C@H](CO)O2)c(=O)n1 (stereo partly shown) [Compound V-18] | – | – |
